Assay results published in PMC5883364 (Malaria Journal, 2018).
Entries after “also recorded” stand apart in the source; their conditions may differ. Read-outs that look alike come from different tables or passages of the source.

How the values were obtained:
[1] = tested on: P. falciparum IPC4912 (artemisinin-resistant, K13 I543T); test: SYBR Green I assay, IC50, strain IPC4912; format: cell-based, Plasmodium falciparum; conditions: for IC50: Plasmodium falciparum, read-out: P. falciparum IC50 ± SD, IPC4912; for Resistance Index RIc = IC50 (IPC4912)/IC50 (3D7): IPC4912 vs 3D7
Procedure: Staging and parasitaemia were determined by light microscopy of Giemsa-stained thin blood smears. Anti-malarial activity was determined using the SYBR Green I assay, as previously described. Briefly, early ring stage parasites (> 80% of rings) were challenged with a 1:3 serial dilution of each compound, in concentrations ranging from 10,000–0.169 nM. Fluorescence intensity was measured with a multi-mode microplate reader (Triad, Dynex Technologies), with excitation and emission wavelengths of 485 and 535 nm, respectively, and analysed by nonlinear regression using GraphPad Prism to determine IC50 values.

[2] = tested on: P. falciparum IPC5202 (artemisinin-resistant, K13 R539T); test: SYBR Green I assay, IC50, strain IPC5202; format: cell-based, Plasmodium falciparum; conditions: for IC50: Plasmodium falciparum, read-out: P. falciparum IC50 ± SD, IPC5202, strain IPC5202; for Resistance Index RIb = IC50 (IPC5202)/IC50 (3D7): IPC5202 vs 3D7
Procedure: (§1) Staging and parasitaemia were determined by light microscopy of Giemsa-stained thin blood smears. Anti-malarial activity was determined using the SYBR Green I assay, as previously described.

[3] = tested on: P. falciparum Dd2 (chloroquine-resistant, mefloquine-resistant); test: SYBR Green I assay, IC50, strain Dd2; format: cell-based, Plasmodium falciparum; conditions: for Resistance Index RIa = IC50 (Dd2)/IC50 (3D7): Dd2 vs 3D7
Procedure: as §1

[4] = tested on: V79 (Chinese hamster lung) cells; conditions: for LD50 V79: Chinese hamster, 24 h; for Selectivity index LD50 (V79)/IC50 (3D7): V79 vs 3D7; for Selectivity index LD50 (V79)/IC50 (Dd2): V79 vs Dd2; for Selectivity index LD50 (V79)/IC50 (IPC4912): V79 vs IPC4912; for Selectivity index LD50 (V79)/IC50 (IPC5202): V79 vs IPC5202
Procedure: (§2) Cytotoxicity was assessed on the mammalian cell lines HepG2-A16 (human hepatoma) and V79 (Chinese hamster lung), using a MTT based assay, as previously described. […] V79 and HepG2 cell lines were incubated for 24 and 48 h, respectively (media changed at 24 h intervals). Absorbance was read at 570 nm on a multi-mode microplate reader (Triad, Dynex Technologies), to produce a log dose-dependence curve. The LD50 value for each compound was estimated by non-linear interpolation of the dose-dependence curve (GraphPad Software).

[5] = tested on: HepG2-A16 (human hepatoma) cells; conditions: for Selectivity index LD50 (HepG2)/IC50 (3D7): HepG2 vs 3D7; for Selectivity index LD50 (HepG2)/IC50 (Dd2): HepG2 vs Dd2; for Selectivity index LD50 (HepG2)/IC50 (IPC4912): HepG2 vs IPC4912; for Selectivity index LD50 (HepG2)/IC50 (IPC5202): HepG2 vs IPC5202; for LD50 HepG2: human, 48 h
Procedure: as §2

[6] = tested on: P. falciparum 3D7 (chloroquine and mefloquine sensitive); test: SYBR Green I assay, IC50, strain 3D7; format: cell-based, Plasmodium falciparum; conditions: Plasmodium falciparum, 3D7, read-out: P. falciparum IC50 ± SD, 3D7
Procedure: as §1

Plasmodium berghei NK65 = test: Peters' 4-day suppressive test in Swiss albino mice; format: in vivo; conditions: for in vivo outcome against P. berghei in words / inhibition in vivo at 50 mg/kg/day / Mean parasitaemia ± SD, Day 5 / Mean parasitaemia ± SD, Day 7 / Mean parasitaemia ± SD, Day 10: 50 mg/kg/day oral for 4 days; for in vivo outcome against P. berghei in words: followed to day 10; for inhibition in vivo at 50 mg/kg/day: Plasmodium berghei; for inhibition in vivo at 50 mg/kg/day / Mean parasitaemia ± SD, Day 5 / Mean parasitaemia ± SD, Day 7 / Mean parasitaemia ± SD, Day 10: mice
Procedure: In vivo tests were performed following the Guidelines for Ethical Conduct in The Care and Use of Animals of the Federal University of Rio Grande do Norte—Brazil (CEUA/UFRN/46/2013). Evaluation of anti-malarial activity in vivo was carried out using the Peters’ 4-day suppressive test, with modifications, as previously described. Swiss albino mice were infected with Plasmodium berghei NK65 and randomly allocated to groups of five animals. Animals were treated with 50 mg/kg/day of each of the tested compounds (dissolved in PBS containing 1% DMSO), administrated orally, for four consecutive days. The control group was treated with a solution of PBS/1% DMSO. On days 5 (D5), 7 (D7) and 10 (D10) after parasite inoculation, tail blood smears were Giemsa-stained and examined microscopically to estimate parasitaemia. Acute toxicity testing was carried out to determine adverse effects due to compounds (including weight loss, hair appearance, skin wounds and behavioural changes), and recorded daily.

[7] = 120 h, day 5, vs control group, read-out: % inhibition of parasite growth, Day 5 (converted)
[8] = 168 h, day 7, vs control group, read-out: % inhibition of parasite growth, Day 7 (converted)
[9] = 240 h, day 10, vs control group, read-out: % inhibition of parasite growth, Day 10 (converted)

Row | Compound | IC50 [1] [nM] | IC50 [2] [nM] | LD50 V79 [4] [mM] | Selectivity index LD50 (V79)/IC50 (3D7) [4] | Selectivity index LD50 (V79)/IC50 (Dd2) [4] | Selectivity index LD50 (V79)/IC50 (IPC4912) [4] | Selectivity index LD50 (V79)/IC50 (IPC5202) [4] | Selectivity index LD50 (HepG2)/IC50 (3D7) [5] | Selectivity index LD50 (HepG2)/IC50 (Dd2) [5] | Selectivity index LD50 (HepG2)/IC50 (IPC4912) [5] | Selectivity index LD50 (HepG2)/IC50 (IPC5202) [5] | LD50 HepG2 [5] [mM] | Resistance Index RIc = IC50 (IPC4912)/IC50 (3D7) [1] | Resistance Index RIb = IC50 (IPC5202)/IC50 (3D7) [2] | inhibition in vivo at 50 mg/kg/day (Plasmodium berghei NK65; [7]) [%] | inhibition in vivo at 50 mg/kg/day (Plasmodium berghei NK65; [8]) [%] | inhibition in vivo at 50 mg/kg/day (Plasmodium berghei NK65; [9]) [%] | Mean parasitaemia ± SD, Day 5 (Plasmodium berghei NK65; day 5) [%] | Mean parasitaemia ± SD, Day 7 (Plasmodium berghei NK65) [%] | Mean parasitaemia ± SD, Day 10 (Plasmodium berghei NK65) [%] | other results
1 | CC(C)(C)OC(=O)NCCCCNC1CCC2(CC1)OOC1(O2)C2CC3CC(C2)CC1C3 (stereo not drawn) [MIS14] | 390 ± 17.8 | 413 ± 20.2 | > 1 | 25575.4 | 22421.5 | 2567.4 | 2420.7 | 8439.9 | 7399.1 | 847.2 | 798.8 | 0.3 | – | – | – | – | – | – | – | – | Resistance Index RIa = IC50 (Dd2)/IC50 (3D7) [3]: 1.1; decrease in HepG2 survival ([5]; maximum dose of 1 mM): ~30%
2 | CCN(CC)CCCC(C)Nc1ccnc2cc(Cl)ccc12 (stereo not drawn) [CQ, chloroquine, reference compound] | – | – | – | – | – | – | – | – | – | – | – | – | – | – | – | – | – | – | – | – | IC50 [6]: 15.8 ± 0.8 nM; IC50 ([3]; Plasmodium falciparum, DD2, read-out: P. falciparum IC50 ± SD, Dd2, strain Dd2): 340 ± 20.7 nM; IC50 ([3]; read-out: P. falciparum IC50 ± SD, Dd2, strain Dd2): 340 ± 20.7 nM
3 | c1ccc(-n2nnnc2OCC2CCC3(CC2)OOC2(O3)C3CC4CC(C3)CC2C4)cc1 (stereo not drawn) [LC132] | 19.7 ± 3.4 | 25 ± 7.4 | > 1 | 41322.3 | 37596.9 | 50761.4 | 40000.0 | 41322.3 | 37596.9 | – | 40000.0 | 1.0 | 0.81 | 1.03 | 100 | 100 | 94.5 | 0 | 0 | 0.31 ± 0.10 | in vivo outcome against P. berghei in words (Plasmodium berghei NK65): recrudescence also occurred on day 10; also recorded: allowed recrudescence on day 10; Resistance Index RIa = IC50 (Dd2)/IC50 (3D7) [3]: 1.1; times less active than LC131 or LC136 ([3]; in vitro, strain not stated): up to 12
4 | O=S1(=O)N=C(OCC2CCC3(CC2)OOC2(O3)C3CC4CC(C3)CC2C4)c2ccccc21 (stereo not drawn) [LC129] | 29.3 ± 0.7 | 36.4 ± 0.6 | > 1 | 23310.0 | 23148.1 | 29673.5 | 27502.7 | 23310.0 | 23148.1 | 29673.5 | 27502.7 | 1.0 | 0.79 | 0.85 | 87.6 | 50.7 | 76.7 | 0.19 ± 0.12 | 1.76 ± 1.36 | 1.32 ± 1.24 | in vivo outcome against P. berghei in words (Plasmodium berghei NK65): failed to completely suppress it
5 | CCCCNC(=O)C1CCC2(CC1)OOC1(O2)C2CC3CC(C2)CC1C3 (stereo not drawn) [LC92] | 34.9 ± 7.9 | 37.7 ± 9.9 | > 1 | 37453.1 | 44247.8 | 28653.3 | 26525.2 | 37453.1 | 44247.8 | 28653.3 | 26525.2 | 1.0 | 1.31 | 1.41 | 98.3 | 87 | 86.3 | 0.02 ± 0.05 | 0.46 ± 0.60 | 0.77 ± 0.26 | mice presenting parasitaemia, day 5 (Plasmodium berghei NK65; groups of five mice, 50 mg/kg/day oral, day 5): 5
